Laboratory results reported in publication PMC10435442, “Developing multitarget coumarin based anti-breast cancer agents: synthesis and molecular modeling study” (Scientific Reports, 2023).
≈ marks a conversion by molar mass, not a printed value. Where “and” joins values, the source holds several entries; their conditions need not be identical. Equal entries are not always repeated. Where two headings read alike, the source gives them in different places.

Assays:
MCF-10A = assay: MTT cytotoxicity assay, nonmalignant MCF-10A; details: for IC50: read-out: MCF-10A IC50, MTT, nonmalignant MCF-10A;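 for all read-outs here: MTT assay with absorbance read at 570 nm after 48 h exposure of cells to serial compound concentrations at 37 °C, testing selectivity against nonmalignant versus cancer cells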
in vitro = details: human
MDA-MB-231 = assay: MTT cytotoxicity assay, MDA-MB-231; details: for IC50: Homo sapiens; for % viability: MDA; for anti-proliferative activity against MDA-MB-231 (in words): SAR discussion
MCF-7 = assay: MTT cytotoxicity assay, MCF-7; details: for IC50: Homo sapiens; for anti-proliferative activity against MCF-7 (in words): SAR discussion
EGFR = EGFR (Homo sapiens, UniProt P00533); assay: In vitro EGFR enzyme inhibition assay (ELISA); details: for EGFR %inh: lab report 01-11-2021
EGFR, sequence (P00533 25-1210): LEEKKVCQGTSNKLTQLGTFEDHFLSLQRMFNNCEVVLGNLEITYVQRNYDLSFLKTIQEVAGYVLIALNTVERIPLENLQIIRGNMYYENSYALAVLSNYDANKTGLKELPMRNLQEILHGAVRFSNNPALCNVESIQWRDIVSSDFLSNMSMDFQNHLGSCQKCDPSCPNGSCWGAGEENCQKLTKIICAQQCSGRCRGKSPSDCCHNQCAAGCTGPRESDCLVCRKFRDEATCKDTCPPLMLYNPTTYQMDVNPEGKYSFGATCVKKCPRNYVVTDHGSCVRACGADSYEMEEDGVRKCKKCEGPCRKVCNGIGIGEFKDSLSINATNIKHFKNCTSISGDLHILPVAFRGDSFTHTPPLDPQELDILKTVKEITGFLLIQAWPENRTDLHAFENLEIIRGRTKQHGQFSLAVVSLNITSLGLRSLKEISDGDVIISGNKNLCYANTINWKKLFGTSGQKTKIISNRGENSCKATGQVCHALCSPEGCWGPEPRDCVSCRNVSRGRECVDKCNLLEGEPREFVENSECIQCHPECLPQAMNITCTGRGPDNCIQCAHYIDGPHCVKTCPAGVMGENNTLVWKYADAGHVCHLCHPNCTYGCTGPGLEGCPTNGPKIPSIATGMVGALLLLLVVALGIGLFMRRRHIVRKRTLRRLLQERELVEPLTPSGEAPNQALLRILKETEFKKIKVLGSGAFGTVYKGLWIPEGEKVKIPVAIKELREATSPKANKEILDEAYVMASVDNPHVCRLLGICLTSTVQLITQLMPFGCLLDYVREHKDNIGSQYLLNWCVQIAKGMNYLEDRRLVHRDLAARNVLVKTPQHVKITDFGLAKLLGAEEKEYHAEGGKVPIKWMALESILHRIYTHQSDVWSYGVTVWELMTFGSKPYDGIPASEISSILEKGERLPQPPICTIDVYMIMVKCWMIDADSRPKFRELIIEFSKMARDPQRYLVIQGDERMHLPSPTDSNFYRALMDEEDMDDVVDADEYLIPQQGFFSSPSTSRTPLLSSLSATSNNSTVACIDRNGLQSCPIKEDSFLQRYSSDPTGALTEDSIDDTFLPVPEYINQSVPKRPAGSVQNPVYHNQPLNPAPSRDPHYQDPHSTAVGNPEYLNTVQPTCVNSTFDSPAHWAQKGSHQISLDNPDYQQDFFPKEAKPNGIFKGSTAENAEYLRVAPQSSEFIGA

[1] = MDA-MB-231, read-out: MDA-MBA-231 IC50
[2] = MDA-MB-231, read-out: cytotoxicity_IC50 MDA
[3] = MCF7, read-out: cytotoxicity_IC50 mcf7
[4] = MCF-10A cells (nonmalignant breast)
[5] = EGFR IC50, lab report 01-11-2021, 10 compounds

| Compound | IC50 (MCF-10A) [µM] | IC50 (MDA-MB-231; [1]) [µM] | IC50 (MDA-MB-231; [2]) [µg/mL] | % viability (MDA-MB-231; 0.4ug (log conc. -0.41)) | % viability (MDA-MB-231; 1.6ug (log conc. 0.19)) | % viability (MDA-MB-231; 6.25ug (log conc. 0.8)) [%] | % viability (MDA-MB-231; 25ug (log conc. 1.4)) | % viability (MDA-MB-231; 100ug (log conc. 2)) | IC50 (MCF-7; MCF7, read-out: MCF-7 IC50) [µM] | IC50 (MCF-7; [3]) [µg/mL] | % viability (MCF-7; MCF7, 0.4ug) | % viability (MCF-7; MCF7, 1.6ug) | % viability (MCF-7; MCF7, 6.3ug) | % viability (MCF-7; MCF7, 25ug) | % viability (MCF-7; MCF7, 100ug) | IC50 at 48 h (in vitro; [4]) [µg/mL] | viability at 48 h, 0.4 ug (in vitro; [4]) [%] | viability at 48 h, 1.6 ug (in vitro; [4]) [%] | viability at 48 h, 6.25 ug (in vitro; [4]) [%] | viability at 48 h, 25 ug (in vitro; [4]) [%] | further results |
| --- | --- | --- | --- | --- | --- | --- | --- | --- | --- | --- | --- | --- | --- | --- | --- | --- | --- | --- | --- | --- | --- |
| O=c1cc(CCl)c2ccc(O)cc2o1 [Compound 1, 4-chloromethyl-7-hydroxycoumarin] | 442 ± 4.53 | 354 ± 4.06 | 74.5 ± 4.06 | 88.396% and 88.4% | 77.133% and 77.13% | 69.01 | 56.655% and 56.66% | 48.4642% and 48.46% | 115 ± 1.47 | 24.3 ± 1.47 | 77.743% and 77.74% | 67.269% and 67.27% | 59.663% and 59.66% | 49.002% and 49% | 41.1471% and 41.15% |  |  |  |  |  | % viability (MCF-10A; MCF10a, 0.4ug (log conc. -0.41)): 84.01%; % viability (MCF-10A; MCF10a, 1.6ug (log conc. 0.19)): 75.58%; % viability (MCF-10A; MCF10a, 6.25ug (log conc. 0.8)): 67.49%; % viability (MCF-10A; MCF10a, 25ug (log conc. 1.4)): 56.99%; % viability (MCF-10A; MCF10a, 100ug (log conc. 2)): 50.09%; IC50 at 48 h (in vitro): 93 ± 4.53 µg/mL (≈ 442 µM); viability at 48 h, 0.4 ug (in vitro): 84%; viability at 48 h, 1.6 ug (in vitro): 75.6%; viability at 48 h, 6.25 ug (in vitro): 67.5%; viability at 48 h, 25 ug (in vitro): 57%; viability at 48 h, 100 ug (in vitro): 50.1%; anti-proliferative activity against MDA-MB-231 (in words) (MDA-MB-231): devoid of activity; anti-proliferative activity against MCF-7 (in words) (MCF-7): devoid of activity |
| O=C(OCc1cc(=O)oc2cc(O)ccc12)c1ccc(Cl)cc1 [Compound 3, (7-Hydroxy-2-oxo-2H-chromen-4-yl)methyl 4-chlorobenzoate] | 369 ± 5.93 | 67.5 ± 1.22 | 22.3 ± 1.22 | 76.24% | 65.98% | 58.685 | 49.2762% | 40.41% | 36.6 ± 0.74 | 12.1 ± 0.74 | 72.04% | 65.12% | 53.704% | 45.5556% | 35.679% | 122 ± 5.93 (≈ 369 µM) | 95.8 | 83.9 | 72.9 | 61.2 | viability at 48 h, 100 ug (in vitro; [4]): 52.7%; IC50 (EGFR; [5]): 0.974 µM; IC50 (EGFR; EGFR inhibition IC50): 0.974 ± 0.06 µM; EGFR %inh (EGFR; conc 0.01 (unit not given)): 17%; EGFR %inh (EGFR; conc 0.1 (unit not given)): 36%; EGFR %inh (EGFR; conc 1 (unit not given)): 60%; EGFR %inh (EGFR; conc 10 (unit not given)): 85%; Percentage above Reference IC50 (potency relative to erlotinib) (EGFR; reference Erlotinib): 8.624% |
| COc1ccccc1C(=O)OCc1cc(=O)oc2cc(O)ccc12 [Compound 4, (7-Hydroxy-2-oxo-2H-chromen-4-yl)methyl 2-methoxybenzoate] | 128 ± 2.03 | 6.4 ± 0.11 | 2.08 ± 0.11 | 60.769% | 51.538% | 43.254 | 34.142% | 25.2071% | 17.2 ± 0.34 | 5.6 ± 0.34 | 68.369% | 58.612% | 49.509% | 38.9% | 30.9103% | 41.6 ± 2.03 (≈ 127 µM) | 76.8 | 69.5 | 61.1 | 53.6 | viability at 48 h, 100 ug (in vitro; [4]): 44.3%; IC50 (EGFR; [5]): 0.438 µM; IC50 (EGFR; EGFR inhibition IC50): 0.438 ± 0.027 µM; EGFR %inh (EGFR; conc 0.01 (unit not given)): 25%; EGFR %inh (EGFR; conc 0.1 (unit not given)): 46%; EGFR %inh (EGFR; conc 1 (unit not given)): 70%; EGFR %inh (EGFR; conc 10 (unit not given)): 87%; Percentage above Reference IC50 (potency relative to erlotinib) (EGFR; reference Erlotinib): 19.178% |
| O=C(COc1ccc2c(CCl)cc(=O)oc2c1)c1ccccc1 [Compound 5, 4-(Chloromethyl)-7-(2-oxo-2-phenylethoxy)-2H-chromen-2-one] | 83.9 ± 1.35 | 5.8 ± 0.1 | 1.91 ± 0.1 | 61.18% | 50.473% | 42.019 | 33.628% | 22.3344% | 39.5 ± 0.79 | 13 ± 0.79 | 67.523% | 64.281% | 52.844% | 47.217% | 38.104% | 27.6 ± 1.35 (≈ 84 µM) | 74.4 | 66.7 | 57.6 | 49.9 | viability at 48 h, 100 ug (in vitro; [4]): 43.5%; IC50 (EGFR; EGFR IC50, lab report 01-09-2021, 04 compounds, reference Erlotinib): 0.316 µM; IC50 (EGFR; EGFR inhibition IC50): 0.316 ± 0.0066 µM; inhibition at 10 pg/mL (EGFR; read-out: EGFR %inh): 29%; inhibition at 0.0001 µg/mL (EGFR; read-out: EGFR %inh): 50%; inhibition at 0.001 µg/mL (EGFR; read-out: EGFR %inh): 70%; inhibition at 0.01 µg/mL (EGFR; read-out: EGFR %inh): 90%; Percentage above Reference IC50 (potency relative to erlotinib) (EGFR; reference Erlotinib): 54.886% |
| O=C(COc1ccc2c(CCl)cc(=O)oc2c1)c1ccc(Cl)cc1 [Compound 6, 4-(Chloromethyl)-7-(2-(4-chlorophenyl)-2-oxoethoxy)-2H-chromen-2-one] | 156 ± 2.76 | 56.6 ± 1.12 | 20.5 ± 1.12 | 73.67% | 63.08% | 56.509 | 49.4083% | 41.124% | 217 ± 4.77 | 78.7 ± 4.77 | 87.56% | 78.06% | 71.906% | 59.463% | 45.972% | 56.6 ± 2.76 (≈ 156 µM) | 78.1 | 70.4 | 62.2 | 54.8 | viability at 48 h, 100 ug (in vitro; [4]): 46.8%; IC50 (EGFR; [5]): 0.154 µM; IC50 (EGFR; EGFR inhibition IC50): 0.154 ± 0.008 µM; EGFR %inh (EGFR; conc 0.01 (unit not given)): 34%; EGFR %inh (EGFR; conc 0.1 (unit not given)): 57%; EGFR %inh (EGFR; conc 1 (unit not given)): 74%; EGFR %inh (EGFR; conc 10 (unit not given)): 91%; Percentage above Reference IC50 (potency relative to erlotinib) (EGFR; reference Erlotinib): 54.545%; anti-proliferative activity against MDA-MB-231 (in words) (MDA-MB-231): lower activity level; anti-proliferative activity against MCF-7 (in words) (MCF-7): lower activity level |
| COc1ccccc1C(=O)OCc1cc(=O)oc2cc(OC(C)=O)ccc12 [Compound 15, (7-Acetoxy-2-oxo-2H-chromen-4-yl)methyl 2-methoxybenzoate] | 312 ± 5.62 | 74.9 ± 1.52 | 27.9 ± 1.52 | 76.72% | 65.9% | 56.927 | 46.8873% | 37.745% | 17.1 ± 0.38 | 6.3 ± 0.38 | 67.97% | 58.26% | 50.063% | 42.623% | 31.337% | 115 ± 5.62 (≈ 312 µM) | 86 | 78.2 | 68.2 | 60.1 | viability at 48 h, 100 ug (in vitro; [4]): 50.8%; anti-proliferative activity against MCF-7 (in words) (MCF-7): moderate anti-proliferative activity |
| COc1cccc2c1C(=O)c1c(O)c3c(c(O)c1C2=O)C[C@@](O)(C(=O)CO)C[C@@H]3O[C@H]1C[C@H](N)[C@H](O)[C@H](C)O1 [Doxorubicin, reference compound] | 22.8 ± 0.6 | 7.3 ± 0.22 | 3.98 ± 0.22 |  |  |  | 40.9788% |  | 5.6 ± 0.18 | 3.04 ± 0.18 | 62.95% | 52.16% | 46.435% | 38.2693% | 28.946% | 12.4 ± 0.6 (≈ 22.8 µM) | 74 | 63.5 | 55.4 | 44.6 | % viability (MCF-10A; MCF10a cells, 0.4ug, listed as Dox): 73.9934%; % viability (MCF-10A; MCF10a cells, 1.6ug, listed as Dox): 63.4983%; % viability (MCF-10A; MCF10a cells, 6.25ug (6.3ug), listed as Dox): 55.4455%; % viability (MCF-10A; MCF10a cells, 100ug, listed as Dox): 35.9076%; IC50 (MCF-10A; listed as DOX): 12.4 µM; viability at 48 h, 100 ug (in vitro; [4]): 35.9%; % viability (MDA-MB-231; 0.4ug (log conc. -0.41), listed as Dox): 63.56% and 63.5613%; % viability (MDA-MB-231; 1.6ug (log conc. 0.19), listed as Dox): 55.84% and 55.8373%; % viability (MDA-MB-231; 6.25ug (log conc. 0.8), listed as Dox): 46.58% and 46.5802%; % viability (MDA-MB-231; 100ug (log conc. 2), listed as Dox): 29.599% and 29.5991%; % viability (MCF-7; MCF7, 0.4ug (log conc. -0.4089)): 62.9494%; % viability (MCF-7; MCF7, 1.6ug (log conc. 0.1931)): 52.1633%; % viability (MCF-7; MCF7, 6.25ug (log conc. 0.7959)): 46.4351%; % viability (MCF-7; MCF7, 100ug (log conc. 2)): 28.9458% |
